Source: the supplement of paper PMC10307832

Key:
Experiment in all cases: relative viability (nuclei count vs DMSO), 5 days (fraction); higher = more cells survive
Zebularine + Alpelisib = compound: O=c1ncccn1[C@@H]1O[C@H](CO)[C@@H](O)[C@H]1O [Zebularine] + Cc1nc(NC(=O)N2CCC[C@H]2C(N)=O)sc1-c1ccnc(C(C)(C)C(F)(F)F)c1 [Alpelisib] (partner 2 µM)
How it was run: (§1)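 After 5 days of treatment, lung cancer cells in 1536-well plates were fixed and stained in a single step (final 0.05% Triton X-100, 1% formaldehyde, 1 ug/ml Hoechst) and their nuclei counted on 4× images. Treatment had been applied by pin tool the day after seeding as one drug alone or as a fixed anchor-drug dose with five library-drug doses (not always all listed) in √10 steps. Relative viability is the nuclei count of treated wells divided by that of vehicle wells, and values are medians of duplicate plates.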

BI-D1870 + Phenformin = compound: CC(C)CCN1c2nc(Nc3cc(F)c(O)c(F)c3)ncc2N(C)C(=O)C1C [BI-D1870] + N=C(N)NC(=N)NCCc1ccccc1 [Phenformin] (partner 250 µM)
How it was run: as §1

Zebularine + Pemetrexed = compound: O=c1ncccn1[C@@H]1O[C@H](CO)[C@@H](O)[C@H]1O [Zebularine] + Nc1nc2[nH]cc(CCc3ccc(C(=O)N[C@@H](CCC(=O)O)C(=O)O)cc3)c2c(=O)[nH]1 [Pemetrexed] (partner 0.2 µM)
How it was run: as §1

BI-D1870 + Navitoclax = compound: CC(C)CCN1c2nc(Nc3cc(F)c(O)c(F)c3)ncc2N(C)C(=O)C1C [BI-D1870] + CC1(C)CCC(c2ccc(Cl)cc2)=C(CN2CCN(c3ccc(C(=O)NS(=O)(=O)c4ccc(N[C@H](CCN5CCOCC5)CSc5ccccc5)c(S(=O)(=O)C(F)(F)F)c4)cc3)CC2)C1 [Navitoclax] (partner 0.5 µM)
How it was run: as §1

**Q.** How did the relative viability (Zebularine + Alpelisib; first compound 1 µM) turn out when UMC-11 was run?
**A.** The relative viability was 1.08.

**Q.** What about the relative viability (Zebularine + Alpelisib; first compound 3.162 µM) of the same cell line?
**A.** Its relative viability is 0.958.

**Q.** What about the relative viability (Zebularine + Alpelisib; first compound 10 µM) of the same cell line?
**A.** The relative viability was 0.419.

**Q.** What about the relative viability (Zebularine + Alpelisib; first compound 31.62 µM) of the same cell line?
**A.** Its relative viability is 0.789.

**Q.** And the relative viability (Zebularine + Alpelisib; first compound 100 µM)?
**A.** Its relative viability is 0.419.

**Q.** What about the relative viability (BI-D1870 + Phenformin; first compound 0.04 µM) of the same cell line?
**A.** Its relative viability is 0.332.

**Q.** What about the relative viability (BI-D1870 + Phenformin; first compound 0.1265 µM) of the same cell line?
**A.** The relative viability was 0.285.

**Q.** And the relative viability (BI-D1870 + Phenformin; first compound 0.4 µM)?
**A.** Its relative viability is 0.33.

**Q.** And the relative viability (BI-D1870 + Phenformin; first compound 1.265 µM)?
**A.** The relative viability was 0.295.

**Q.** What about the relative viability (BI-D1870 + Phenformin; first compound 4 µM) of the same cell line?
**A.** The relative viability was 0.183.

**Q.** And the relative viability (Zebularine + Pemetrexed; first compound 1 µM)?
**A.** The relative viability was 0.809.

**Q.** What about the relative viability (Zebularine + Pemetrexed; first compound 3.162 µM) of the same cell line?
**A.** Its relative viability is 0.724.

**Q.** And the relative viability (Zebularine + Pemetrexed; first compound 10 µM)?
**A.** Its relative viability is 0.388.

**Q.** And the relative viability (Zebularine + Pemetrexed; first compound 31.62 µM)?
**A.** The relative viability was 0.649.

**Q.** And the relative viability (Zebularine + Pemetrexed; first compound 100 µM)?
**A.** Its relative viability is 0.417.

**Q.** What about the relative viability (BI-D1870 + Navitoclax; first compound 0.04 µM) of the same cell line?
**A.** Its relative viability is 0.287.

**Q.** And the relative viability (BI-D1870 + Navitoclax; first compound 0.1265 µM)?
**A.** The relative viability was 0.295.

**Q.** And the relative viability (BI-D1870 + Navitoclax; first compound 0.4 µM)?
**A.** The relative viability was 0.311.

**Q.** And the relative viability (BI-D1870 + Navitoclax; first compound 1.265 µM)?
**A.** Its relative viability is 0.336.

**Q.** What about the relative viability (BI-D1870 + Navitoclax; first compound 4 µM) of the same cell line?
**A.** The relative viability was 0.129.
